Reference: patent US20080102497A1, “ENZYMATIC HYDROLYSIS OF STARCH” (priority 2006, published 2008)
Values joined by “and” are separate entries in the source; they are usually repeats but may differ in a detail not shown here. Identical values can stand only once. Like-named read-outs stand apart in the source and are kept apart here.

Tests used:
β-amylase from barley = β-amylase from barley (Hordeum vulgare, UniProt P16098); assay: hydrolysis of cooked dent corn starch with other additives; type: biochemical; conditions: for effect on rate of enzymatic hydrolysis (in words): 10 mM additive, cooked dent corn starch; for Relative Activity: cooked dent corn starch 0.5%, pH 5.2, 37° C., 10 min
Description: […] The separate reaction mixtures were incubated at 37° C. for 10 minutes. The control reaction mixture contained enzyme, buffer, and starch but no additive. The starch hydrolysis reaction was stopped by combining the reaction mixture with a solution containing DNSA and heating for 30 min at 85° C. The absorbance of the control and test samples was measured at […] to monitor the amount of reducing sugar in each sample.

[1] = molecular target: glucoamylase from Aspergillus Niger (Aspergillus niger, UniProt P69328); assay: as above; type: biochemical; conditions: for effect on rate of enzymatic hydrolysis (in words): 10 mM additive, cooked dent corn starch; for Relative Activity: cooked dent corn starch 0.5%, pH 5.2, 37° C., 10 min
Description: (§1) The glucoamylase from Aspergillus Niger was added to a sodium acetate buffer solution, pH 5.2, comprising no metal or 10 mM Fe^++, Mg^++, Li^+, Zn^++, Cu^++, Ca^++, di-sodium EDTA, NH4^+, Sr^++, Na^+, K^+, Al^+++, or Ba^++ and 0.5% by weight cooked dent corn starch. The separate reaction mixtures were incubated at 37° C. for 10 minutes. The control reaction mixture contained enzyme, buffer, and starch but no additive. The starch hydrolysis reaction was stopped by combining the reaction mixture with a solution containing DNSA and heating for 30 min at 85° C. The absorbance of the control and test samples was measured at 562 nm to monitor the amount of reducing sugar in each sample.

[2] = molecular target: α-amylase from Bacillus licheniformis (Bacillus licheniformis, UniProt P06278); assay: as above; type: biochemical; conditions: for effect on rate of enzymatic hydrolysis (in words): 10 mM additive, cooked dent corn starch; for Relative Activity: cooked dent corn starch 0.5%, pH 5.2, 37° C., 10 min
Description: as §1, with “α-amylase” for “glucoamylase”, “Bacillus licheniformis” for “Aspergillus Niger”, “[…],” for “comprising no metal or 10 mM Fe^++, Mg^++, Li^+, Zn^++, Cu^++, Ca^++,”

[3] = tested on: enzyme mixture of purified glucoamylase from mushroom and purified α-amylase from barley; assay: hydrolysis of raw corn starch by enzyme mixture, reducing sugar by DNSA; type: biochemical; conditions: for Relative Activity: 10 mM additive, raw corn starch, pH 5.3, 37° C., 20 min; for effect on hydrolysis of raw corn starch (in words): summary of Table 2
Description: Enzyme mixture was also pre-incubated with 10 mM Fe^++, Cu^++, Ca^++, Mg^++, or disodium ethylenediamine-tetraacetic acid (EDTA). Thereafter, 40 μl of each pre-incubation solution was added to 15 mg raw corn starch, and the reaction mixture incubated at 37° C. for 20 minutes. The control reaction mixture contained substrate, enzyme, and buffer but no additional metal ions. The starch hydrolysis reaction was stopped by combining the reaction mixture with a solution containing 3,5 dinitrosalicylic acid (DNSA) and heating for 30 min at 85° C. The absorbance of the control and test samples was measured at 562 nm to monitor the amount of reducing sugar in each sample.

[4] = tested on: glucoamylase from Rhizopus sp.; conditions: 1.0 mM manganese salt, raw corn starch, pH 5.3, 37° C.
Description: An enzyme solution of the glucoamylase from Rhizopus sp. Was prepared in a sodium acetate buffer, pH 5.3, comprising 1.0 mM manganese chloride, manganese acetate, or manganese sulfate. Thereafter, 40 μl of each enzyme solution was added to 15 mg raw corn starch and the reaction mixtures incubated at 37° C. for 5, 10, 15, 20, or 25 minutes. The starch hydrolysis reaction was stopped by combining the reaction mixture with a solution containing DNSA and heating for 30 min at 85° C. The absorbance of the control and test samples was measured at 562 nm to monitor the amount of reducing sugar in each sample.

Sequence of β-amylase from barley (P16098 whole entry): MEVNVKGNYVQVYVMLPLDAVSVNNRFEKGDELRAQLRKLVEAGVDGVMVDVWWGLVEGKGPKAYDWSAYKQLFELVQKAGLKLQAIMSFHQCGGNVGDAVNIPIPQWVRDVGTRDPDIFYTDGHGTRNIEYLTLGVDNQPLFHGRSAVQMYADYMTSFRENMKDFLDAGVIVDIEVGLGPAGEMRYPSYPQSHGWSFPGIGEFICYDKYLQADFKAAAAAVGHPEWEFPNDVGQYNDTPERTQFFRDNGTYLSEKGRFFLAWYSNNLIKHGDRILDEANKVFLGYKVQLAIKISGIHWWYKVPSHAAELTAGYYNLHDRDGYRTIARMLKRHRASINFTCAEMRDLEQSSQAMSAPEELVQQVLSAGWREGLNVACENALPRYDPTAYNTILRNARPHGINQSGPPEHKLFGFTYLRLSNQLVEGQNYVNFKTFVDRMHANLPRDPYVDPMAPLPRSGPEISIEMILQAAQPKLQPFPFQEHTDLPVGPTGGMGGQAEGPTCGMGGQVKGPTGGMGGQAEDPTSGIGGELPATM
Sequence of α-amylase from Bacillus licheniformis (P06278 30-512): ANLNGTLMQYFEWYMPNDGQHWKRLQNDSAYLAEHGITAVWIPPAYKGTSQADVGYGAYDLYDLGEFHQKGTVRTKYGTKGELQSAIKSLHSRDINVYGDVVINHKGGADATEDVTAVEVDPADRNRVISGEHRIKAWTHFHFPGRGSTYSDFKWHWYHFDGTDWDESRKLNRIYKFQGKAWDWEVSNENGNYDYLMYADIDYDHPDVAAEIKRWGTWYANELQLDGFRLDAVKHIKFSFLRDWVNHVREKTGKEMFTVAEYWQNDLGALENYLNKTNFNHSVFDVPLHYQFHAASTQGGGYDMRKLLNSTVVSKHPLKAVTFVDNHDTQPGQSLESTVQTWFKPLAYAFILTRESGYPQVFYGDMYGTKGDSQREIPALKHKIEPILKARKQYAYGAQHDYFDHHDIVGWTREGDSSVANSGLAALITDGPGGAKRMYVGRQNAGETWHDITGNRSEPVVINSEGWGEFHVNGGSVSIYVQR
Sequence of glucoamylase from Aspergillus Niger (P69328 25-640): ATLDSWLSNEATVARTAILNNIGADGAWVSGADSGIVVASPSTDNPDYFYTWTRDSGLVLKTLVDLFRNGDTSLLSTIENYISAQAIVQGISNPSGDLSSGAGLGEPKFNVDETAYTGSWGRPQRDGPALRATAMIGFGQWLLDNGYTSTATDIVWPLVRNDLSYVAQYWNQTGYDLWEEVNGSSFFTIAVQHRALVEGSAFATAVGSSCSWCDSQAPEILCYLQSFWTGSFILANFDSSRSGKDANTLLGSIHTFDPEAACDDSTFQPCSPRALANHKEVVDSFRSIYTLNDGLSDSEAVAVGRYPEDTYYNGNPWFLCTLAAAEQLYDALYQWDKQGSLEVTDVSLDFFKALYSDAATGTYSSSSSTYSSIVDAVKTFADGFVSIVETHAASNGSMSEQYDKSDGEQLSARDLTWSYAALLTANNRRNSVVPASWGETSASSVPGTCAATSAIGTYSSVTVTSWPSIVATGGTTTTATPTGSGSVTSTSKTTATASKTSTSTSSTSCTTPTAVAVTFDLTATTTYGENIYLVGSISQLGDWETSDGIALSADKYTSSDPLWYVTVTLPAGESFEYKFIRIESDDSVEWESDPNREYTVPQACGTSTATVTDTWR

Compound | effect on rate of enzymatic hydrolysis (in words) (β-amylase from barley) | Relative Activity (β-amylase from barley; Additive (10 mM)) | effect on rate of enzymatic hydrolysis (in words) [1] | Relative Activity ([1]; Additive (10 mM)) | effect on rate of enzymatic hydrolysis (in words) [2] | Relative Activity ([2]; Additive (10 mM)) | Relative Activity (β-amylase from barley; additive 1 mM) | Relative Activity ([1]; additive 1 mM) [%] | Relative Activity [3] [%] | effect on hydrolysis of raw corn starch (in words) [3] | Relative Activity ([2]; additive 1 mM) [%] | % Conversion ([4]; 5 minutes) [%] | % Conversion ([4]; 10 minutes) [%] | % Conversion ([4]; 15 minutes) [%] | % Conversion ([4]; 20 minutes) [%] | % Conversion ([4]; 25 minutes) [%] | % Conversion ([4]; time 0) [%]
[Zn+2] [Zn^++] | do not significantly increase the rate of enzymatic hydrolysis | 70.6% | do not significantly increase the rate of enzymatic hydrolysis | 57.3% | does not increase the enzymatic rate of hydrolysis | 100.2% | – | – | – | – | – | – | – | – | – | – | –
[K+] [K^+, potassium ion] | do not significantly increase the rate of enzymatic hydrolysis | 101.1% | increase the rate of enzymatic hydrolysis | 113.3% | does not increase the enzymatic rate of hydrolysis | 82.8% | – | – | – | – | – | – | – | – | – | – | –
[Ca+2] [Ca^++, calcium ions] | increase the rate of enzymatic hydrolysis | 114.1% and 127.2% and 121.2% | increase the rate of enzymatic hydrolysis | 103.8% and 104.4% and 97.4% | – | 119.1% and 94.8% and 99.4% and 90.0% | 111.8% and 105.8% and 105.0% | 108.0 | 97.3 | do not have a similar effect | 83.6 | – | – | – | – | – | –
[Sr+2] [Sr^++, strontium ion] | increase the rate of enzymatic hydrolysis | 114.1% | do not significantly increase the rate of enzymatic hydrolysis | 93.8% | does not increase the enzymatic rate of hydrolysis | 87.2% | – | – | – | – | – | – | – | – | – | – | –
[Cu+2] [Cu^++] | do not significantly increase the rate of enzymatic hydrolysis | 6.7% | do not significantly increase the rate of enzymatic hydrolysis | 33.9% | does not increase the enzymatic rate of hydrolysis | 30.0% | – | – | 47.5 | do not have a similar effect | – | – | – | – | – | – | –
[Mg+2] [Mg^++, magnesium ion] | increase the rate of enzymatic hydrolysis | 110.8% | do not significantly increase the rate of enzymatic hydrolysis | 96.0% | does not increase the enzymatic rate of hydrolysis | 83.8% | – | – | 92.4 | do not have a similar effect | – | – | – | – | – | – | –
[Al+3] [Al^+++] | do not significantly increase the rate of enzymatic hydrolysis | 77.5% | do not significantly increase the rate of enzymatic hydrolysis | 96.2% | does not increase the enzymatic rate of hydrolysis | 95.1% | – | – | – | – | – | – | – | – | – | – | –
manganese acetate [MnOAc] | – | – | – | – | – | – | – | – | – | – | – | 0.46 | 0.74 | 1.04 | 1.28 | 1.50 | 0
N [NH4^+] | do not significantly increase the rate of enzymatic hydrolysis | 95.1% | do not significantly increase the rate of enzymatic hydrolysis | 98.3% | does not increase the enzymatic rate of hydrolysis | 86.4% | – | – | – | – | – | – | – | – | – | – | –
[Fe+2] [Fe^++] | do not significantly increase the rate of enzymatic hydrolysis | 88.7% | do not significantly increase the rate of enzymatic hydrolysis | 98.3% | does not increase the enzymatic rate of hydrolysis | 101.9% | – | – | 74.0 | do not have a similar effect | – | – | – | – | – | – | –
manganese chloride [MnCl2] | – | – | – | – | – | – | – | – | – | – | – | 0.44 | 0.74 | 1.01 | 1.22 | 1.70 | 0
[Na+] [Na^+] | do not significantly increase the rate of enzymatic hydrolysis | 95.1% | do not significantly increase the rate of enzymatic hydrolysis | 97.3% | does not increase the enzymatic rate of hydrolysis | 84.2% | – | – | – | – | – | – | – | – | – | – | –
O=C(O)CN(CCN(CC(=O)O)CC(=O)O)CC(=O)O.[Na].[Na] [Disodium EDTA, disodium ethylenediamine-tetraacetic acid] | do not significantly increase the rate of enzymatic hydrolysis | 100.4% | do not significantly increase the rate of enzymatic hydrolysis | 57.6% | does not increase the enzymatic rate of hydrolysis | 103.8% | – | – | 88.8 | do not have a similar effect | – | – | – | – | – | – | –
[Li+] [Li^+, lithium ion] | do not significantly increase the rate of enzymatic hydrolysis | 101.6% | increase the rate of enzymatic hydrolysis | 118.1% | does not increase the enzymatic rate of hydrolysis | 89.2% | – | – | – | – | – | – | – | – | – | – | –
[Ba+2] [Ba^++, barium ion] | increase the rate of enzymatic hydrolysis | 114.6% | do not significantly increase the rate of enzymatic hydrolysis | 99.3% | does not increase the enzymatic rate of hydrolysis | 98.1% | – | – | – | – | – | – | – | – | – | – | –
O=S(=O)([O-])[O-].[Mn+2] [MnSO4, manganese sulfate] | – | – | – | – | – | – | – | – | – | – | – | 0.50 | 0.87 | 1.12 | 1.30 | 1.58 | 0
